Laboratory results taken from patent publication US6943151B2, “Method of inhibiting bone resorption and/or promoting bone formation using GLP-2 and related compounds” (Sanos Bioscience A/S, priority 2000, dated 2005).

Key:
S-CTX (bone resorption) = experiment: Serum C-telopeptide fragments of collagen type I degradation (S-CTX) by serum CrossLaps ELISA, marker of bone resorption, after administration to human subjects; type: in vivo
Procedure: In these Examples Haematology and serum chemistry including glucose were measured using an auto analyser (Vitros). Serum FSH was measured by IRMA (Coat-A-Count®, DPC, Los Angeles, Calif.). Serum C-telopeptide fragments of collagen type I degradation (S-CTX) were measured by ELISA, serum CrossLaps™ assay (Osteometer BioTech A/S—Denmark). Serum osteocalcin was determined by ELISA, an assay which determines the N-terminal mid segment of the molecule. Serum insulin and c-peptide were both assessed by RIA (Coat-A-Count® for insulin and Double Antibody C-peptide for c-peptide both DPC, Los Angeles, Calif.).
12 healthy women and men between 30-45, respectively 30-60, were included in a randomised, controlled cross over study comparing the effects of oral fructose on GLP-1, on GIP and on bone turnover. The individuals had not suffered diseases suspected to affect bone turnover such as cancer, rheumatoid arthritis or diseases compromising absorption from the gut or excretion/re-absorption from the kidney nor had they a history of serious diseases, which might influence the conduct of the study. A general laboratory screening including haematology and serum chemistry gave no indication of specific organ dysfunction. […]

GLP-1 = experiment: Level of GLP-1 in blood after oral nutrient intake; type: in vivo, human; conditions: after 2 hours; oral 75 g fructose; healthy women and men
Description: (§1) 12 healthy women and men between 30-45, respectively 30-60, were included in a randomised, controlled cross over study comparing the effects of oral fructose on GLP-1, on GIP and on bone turnover. The individuals had not suffered diseases suspected to affect bone turnover such as cancer, rheumatoid arthritis or diseases compromising absorption from the gut or excretion/re-absorption from the kidney nor had they a history of serious diseases, which might influence the conduct of the study. A general laboratory screening including haematology and serum chemistry gave no indication of specific organ dysfunction. The individuals were not under influence of bone active medication, thus more than 3 months had passed since previous treatment with calcium, vitamin D, oestrogen or progestin in any administration form and the individuals had never been treated with bisphosphonates or fluoride.
After fasting from 10 p.m. the evening prior to an experiment, blood samples were collected between 7:30 a.m. and 8:30 a.m. Immediately thereafter oral fructose were initiated. […]
The normal mixed meal consisted of rye bread, toast, butter, cheese, jam, yoghurt, banana, and orange juice (total weight 755 g), with an energy content of 3.92 MJ and a protein:carbohydrate:fat energy ratio of 10%:52%:37% evaluated from food tables.

GIP = experiment: Level of GIP in blood after oral nutrient intake; type: in vivo, human; conditions: oral 75 g fructose; healthy women and men; result in words
Description: as §1
After fasting from 10 p.m. the evening prior to an experiment, blood samples were collected between 7:30 a.m. and 8:30 a.m. Immediately thereafter oral fructose were initiated. At precisely 1, 2, 3, 6 and 9 hours after the first blood sample, blood samples were collected. A washout period of 2 weeks was instituted between each experiment.
Oral fructose consisted of 75 g fructose dissolved in 300 ml water with juice of a half lemon added. […]

[1] = Level of GLP-2 in blood after subcutaneous GLP-2 injection; type: in vivo; conditions: subcutaneous bolus injection of 400 μg synthetic human GLP-2; healthy women and men
Description: 6 healthy women and 3 healthy men between 24-53 were included in a study comparing the effect of a GLP-2 injection on GLP-2intact and on bone turnover.
The description of the methodology of measurement of GLP-2intact and total GLP-2 and the description of the test persons was as described in detail in Hartmann, B. et al., J Clin Endocrinol Metab 2000; 85 (8):2884-2888.
Blood samples were drawn at regular intervals before, during, and after the injection.
The test persons received a subcutaneous bolus injection of 400 μg synthetic human GLP-2.

Molecule | reduction in S-CTX (S-CTX (bone resorption); after 2 hours, oral intake after overnight fast, 12 healthy women and men) [%] | occurrence (level) of GLP-1 compared to the baseline of 100% at To (GLP-1) [%] | level of GIP (GIP) | reduction in S-CTX (S-CTX (bone resorption); after 3 hours, subcutaneous bolus injection of 400 μg, 6 healthy women and 3 healthy men) [%] | time to peak level of GLP-2 after the injection [1] [h]
O=C(CO)[C@@H](O)[C@H](O)[C@H](O)CO [fructose] | 36 | 220 | almost maintained at the baseline | – | –
GLP-2: synthetic human GLP-2, 33 amino acid peptide fragment of proglucagon (126-158) | – | – | – | 33 | 1
